From patent US20240190874A1, “SMALL MOLECULE DEGRADERS OF ANDROGEN RECEPTOR” (THE REGENTS OF THE UNIVERSITY OF MICHIGAN, priority 2021, published 2024)
Where two headings read alike, the source gives them in different places.

Key:
Assay type in all cases: cell-based
[1] = target: T1, AR (Homo sapiens, UniProt P10275); test: Degradation of AR in VCaP cells; settings: VCaP cells; for Dmax: VCaP
T1 construct: Degradation of AR; Cellular potency; host or cells: VCaP cells
T1 sequence (P10275 1-920): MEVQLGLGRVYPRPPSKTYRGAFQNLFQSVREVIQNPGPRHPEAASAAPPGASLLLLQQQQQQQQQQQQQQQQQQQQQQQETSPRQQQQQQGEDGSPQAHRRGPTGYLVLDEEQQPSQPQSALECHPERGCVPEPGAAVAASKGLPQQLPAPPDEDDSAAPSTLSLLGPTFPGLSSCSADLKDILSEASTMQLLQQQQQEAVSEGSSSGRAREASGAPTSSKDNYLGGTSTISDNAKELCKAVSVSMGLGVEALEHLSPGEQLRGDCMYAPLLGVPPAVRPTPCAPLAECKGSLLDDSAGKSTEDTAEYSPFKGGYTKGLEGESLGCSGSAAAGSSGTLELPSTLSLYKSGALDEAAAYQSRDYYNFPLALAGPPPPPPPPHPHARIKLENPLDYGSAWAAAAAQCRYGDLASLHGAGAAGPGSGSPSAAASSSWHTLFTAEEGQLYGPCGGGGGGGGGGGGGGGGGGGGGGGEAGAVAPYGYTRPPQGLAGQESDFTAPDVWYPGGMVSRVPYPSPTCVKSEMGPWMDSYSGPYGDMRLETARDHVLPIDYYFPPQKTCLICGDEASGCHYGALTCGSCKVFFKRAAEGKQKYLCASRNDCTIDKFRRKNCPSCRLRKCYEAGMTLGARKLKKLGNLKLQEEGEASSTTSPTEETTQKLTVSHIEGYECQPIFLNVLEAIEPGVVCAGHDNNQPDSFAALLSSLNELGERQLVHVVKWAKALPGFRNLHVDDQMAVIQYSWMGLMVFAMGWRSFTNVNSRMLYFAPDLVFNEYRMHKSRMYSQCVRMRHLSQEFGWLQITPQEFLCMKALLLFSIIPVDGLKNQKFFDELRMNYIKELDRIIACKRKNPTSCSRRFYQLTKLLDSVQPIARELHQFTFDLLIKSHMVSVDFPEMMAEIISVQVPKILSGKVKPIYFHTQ
Method: (§1) Biological Assays. LNCaP and VCaP cells used were purchased from American Type Culture Collection (ATCC). LNCaP were grown in RPMI 1640 (Invitrogen) and VCaP cells were grown in DMEM with Glutamax (Invitrogen). All of the cells were supplemented with 10% fetal bovine serum (Invitrogen) at 37° C. in a humidified 5% CO2 incubator.

[2] = test system: LNCaP cells; test: Cellular potency (IC50) in LNCaP cells
Method: as §1

[3] = test system: VCaP cells; test: Cellular potency (IC50) in VCaP cells
Method: as §1

Structure (SMILES) | DC50 [1] [nM] | Dmax [1] [%] | IC50 ([2]; Homo sapiens, LNCaP) [nM] | IC50 ([3]; Homo sapiens, VCaP) [nM] | Degradation of AR in VCaP cells Dmax [1] | IC50 [2] [nM] | IC50 [3] [nM]
C[C@H]1CC2(CCN(c3ccc(N4CCC(N(C)C5CN(c6ccc7c(c6)C(=O)N(C6CCC(=O)NC6=O)C7=O)C5)CC4)cn3)CC2)CN1c1ccc(C#N)c(Cl)c1 (some centres unmarked) [compound 123] | < 1 | > 90 | < 10 | < 10 | – | – | –
C[C@H]1CC2(CCN(c3ccc(OC4CN(C5CN(c6ccc7c(c6)C(=O)N(C6CCC(=O)NC6=O)C7=O)C5)C4)nn3)CC2)CN1c1ccc(C#N)c(Cl)c1 (some centres unmarked) [compound 73] | < 100 | 50 to 70 | < 1000 | < 1000 | – | – | –
C[C@H]1CC2(CCN(c3ccc(CN4CCN(C5CCN(c6ccc7c(c6)C(=O)N(C6CCC(=O)NC6=O)C7=O)CC5)CC4)cn3)CC2)CN1c1ccc(C#N)c(Cl)c1 (some centres unmarked) [compound 154] | < 1 | – | < 10 | < 100 | – | – | –
C[C@H]1CC2(CCN(c3ncc(C(=O)N4CCN(C5CN(c6ccc7c(c6)C(=O)N(C6CCC(=O)NC6=O)C7=O)C5)CC4)s3)CC2)CN1c1ccc(C#N)c(Cl)c1 (some centres unmarked) [compound 136] | < 1 | > 90 | < 10 | < 10 | – | – | –
C[C@H]1CC2(CCN(c3ccc(N4CCC(NC5CN(c6ccc7c(c6)C(=O)N(C6CCC(=O)NC6=O)C7=O)C5)CC4)cc3)CC2)CN1c1ccc(C#N)c(Cl)c1 (some centres unmarked) [compound 120] | < 1 | > 90 | < 10 | < 10 | – | – | –
C[C@H]1CC2(CCN(c3ccc(CN4CCN(C5CN(c6ccc7c(c6)C(=O)N(C6CCC(=O)NC6=O)C7=O)C5)CC4)c(F)c3)CC2)CN1c1ccc(C#N)c(Cl)c1 (some centres unmarked) [compound 40] | < 10 | – | – | – | A (A = >90%) | < 100 | < 100
C[C@H]1CC2(CCN(c3ccc(CN4CCC(N5Cc6cc7c(cc6C5)C(=O)N(C5CCC(=O)NC5=O)C7=O)CC4)cc3)CC2)CN1c1ccc(C#N)c(Cl)c1 (some centres unmarked) [compound 19] | < 100 | 70 to 90 | < 100 | < 100 | – | – | –
C[C@H]1CC2(CCN(c3ccc(CN4CCN(C5CN(c6cc7c(cc6F)C(=O)N(C6CCC(=O)NC6=O)C7=O)C5)CC4)nc3)CC2)CN1c1ccc(C#N)c(Cl)c1 (some centres unmarked) [compound 172] | < 1 | – | < 10 | < 10 | – | – | –
C[C@H]1CC2(CCN(c3cnc(CN4CCN(C5CN(c6cc7c(cc6F)C(=O)N(C6CCC(=O)NC6=O)C7=O)C5)CC4)nc3)CC2)CN1c1ccc(C#N)c(Cl)c1 (some centres unmarked) [compound 175] | < 1 | – | < 10 | < 10 | – | – | –
C[C@H]1CC2(CCN(c3ccc(CN4CC(C5CCN(c6ccc7c(c6)C(=O)N(C6CCC(=O)NC6=O)C7=O)CC5)C4)cn3)CC2)CN1c1ccc(C#N)c(Cl)c1 (some centres unmarked) [compound 178] | < 10 | – | < 100 | < 100 | – | – | –
C[C@H]1CC2(CCN(c3ccc(OC4CN(C5CN(c6ccc7c(c6)C(=O)N(C6CCC(=O)NC6=O)C7=O)C5)C4)cn3)CC2)CN1c1ccc(C#N)c(Cl)c1 (some centres unmarked) [compound 69] | < 1 | > 90 | < 10 | < 10 | – | – | –
C[C@H]1CC2(CCN(c3ncc(CN4CCN(C5CN(c6ccc7c(c6)C(=O)N(C6CCC(=O)NC6=O)C7=O)C5)CC4)cn3)CC2)CN1c1ccc(C#N)c(Cl)c1 (some centres unmarked) [compound 183] | < 1 | – | < 100 | < 100 | – | – | –
C[C@H]1CC2(CCN(c3ccc(OC4CCN(C5CN(c6ccc7c(c6)C(=O)N(C6CCC(=O)NC6=O)C7=O)C5)CC4)cn3)CC2)CN1c1ccc(C#N)c(Cl)c1 (stereo partly drawn) [compound 61, 2-chloro-4-((3S)-8-(5-((1-(1-(2-(2,6-dioxopiperidin-3-yl)-1,3-dioxoisoindolin-5-yl)azetidin-3-yl)piperidin-4-yl)oxy)pyridin-2-yl)-3-methyl-2,8-diazaspiro-[4.5]decan-2-yl)benzonitrile] | – | > 90 | < 10 | < 10 | – | – | –
C[C@H]1CC2(CCN(c3ccc(OC4CN(C5CN(c6ccc7c(c6)C(=O)N(C6CCC(=O)NC6=O)C7=O)C5)C4)nc3)CC2)CN1c1ccc(C#N)c(Cl)c1 (some centres unmarked) [compound 71] | < 100 | 50 to 70 | < 1000 | < 1000 | – | – | –
